For 17 molecules, GI50 and TGI results are on record in PubChem BioAssay (NCI).

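Method: 48-hour compound exposure of cells in 96-well plates, five concentrations, linear interpolation of endpoints. GI50 marks 50% less growth. TGI denotes the concentration required for complete inhibition of growth.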

What all share (experiment): DTP human tumour cell line panel, 48 h
The subject of test [1] is SN12C renal.
The test system of test [2] is HCT-15 colon.
Test [3] relates to SK-MEL-28 melanoma.
Test [4] relates to RPMI-8226 leukemia.
For test [5], the system named is RXF 393 renal.
Test [6] has as its system SK-MEL-2 melanoma.
Test [7] deals with UO-31 renal.
Test [8] concerns UACC-257 melanoma.
The test system of test [9] is SW-620 colon.
Test [10] has as its system MOLT-4 leukemia.

Consider `CCCCn1c(=O)c2c(nc3n2CCCN3CCc2ccc(OCC(=O)NCCN(CC)CC)cc2)n(CCCC)c1=O`, for which the GI50 (usually the concentration giving 50% growth inhibition) is 5.76 µM in test [1]; 1.11 µM in [2]; 0.98 µM in test [3]; 1.13 µM in test [4]; 1.65 µM in test [5]; 6.7 µM in [6]. Besides, the GI50 in test [7] was 1.51 µM; in [8], 1.02 µM; in test [9], 4.86 µM; in test [10] it was 2.14 µM. Besides, the TGI (in general, the concentration giving total growth inhibition) in test [1] was 15.3 µM; in [2], 3.47 µM; in test [3], 2.04 µM; in test [4], 2.9 µM; in [5] it was 6.76 µM; in test [6], 15.3 µM. Further, the TGI in [7] is 7.86 µM; in [8], 2.16 µM; in test [9] it was 11.2 µM; in test [10], 10.5 µM.

Regarding `Cc1cc2c(c(C(=O)O)c1C)-c1cccc(F)c1C2=O`, the TGI in test [1], in test [2], in test [3], in test [4], in [5] and in [6] was above 100 µM throughout. For the same molecule, the TGI in test [7] is 66.1 µM; in test [8], above 100 µM; in test [9], above 100 µM; in test [10] it was above 100 µM.

For `CCCCCn1sc(=O)n(Cc2ccc(CNC(=O)OCc3ccc4cccc(O)c4n3)cc2)c1=O`, the GI50 was 1.49 µM in test [1]; 1.44 µM in test [2]; 1.6 µM in test [3]; 1.56 µM in test [4]; 1.37 µM in test [5]; 1.72 µM in [6]. The GI50 in test [7] was 1.07 µM; in test [8], 1.57 µM; in [9], 1.25 µM; in test [10], 3.02 µM. For the same molecule, the TGI in test [1] was 2.82 µM; in [2], 4.81 µM; in test [3], 2.94 µM; in [4], 11.2 µM; in test [5], 2.67 µM; in test [6], 3.47 µM. The TGI in test [7] turned out to be 2.25 µM; in [8], 3.08 µM; in test [9] it was 2.83 µM; in test [10] it was 45.2 µM.

Take `COc1ccc(OC)c(C2SCC(=O)N2NC(=O)C(O)c2ccccc2)c1` (stereo not given): the GI50 in [1], in test [2], in test [3], in [4], in [5] and in test [6] was above 100 µM throughout. Further, the GI50 in [7], in [8], in test [9] and in [10] was above 100 µM in each case. For the same molecule, the TGI in [1], in test [2], in test [3], in test [4], in test [5] and in [6] was above 100 µM in each case. The TGI in test [7], in test [8], in test [9] and in test [10] was above 100 µM throughout.

As to `N/N=C1\CC(=O)NC(=O)N1`, the TGI in test [1], in [2], in test [3], in [4], in test [5] and in [6] was above 100 µM throughout. For the same molecule, the TGI in test [7], in test [8], in test [9] and in test [10] was above 100 µM throughout.

Regarding `O=C(Oc1cccnc1)c1ccsc1Nc1ccnc(C(F)(F)F)c1`, the GI50 in test [1] is 4.44 µM; in test [2] it was 3.49 µM; in test [3] it was 6.28 µM; in test [4], 6.45 µM; in test [5], 6.26 µM; in test [6] it was 4.19 µM. Further, the GI50 in test [7] was 20.8 µM; in test [8] it was 10.5 µM; in test [9] it was 4.09 µM; in test [10] it was 4.39 µM. Also, the TGI in test [1] is above 100 µM; in test [2] it was above 100 µM; in test [3] it was 39.9 µM; in test [4] it was 51.8 µM; in test [5] it was 34.8 µM; in test [6], above 100 µM. Moreover, the TGI was above 100 µM in test [7], 23.4 µM in test [8], above 100 µM in [9] and 35 µM in test [10].

In the case of `N#Cc1c(N)[nH]c2ccc(Sc3ccccc3)cc12`, the TGI in [1] came to 6.64 µM; in [2], 14.9 µM; in test [3], 17.4 µM; in test [4], 8.65 µM; in test [5] it was 5.48 µM; in test [6], 17.5 µM. The TGI in [7] is 13.9 µM; in test [8], 29.5 µM; in test [9] it was 16.9 µM; in test [10], 11.2 µM.

On to `Cc1cc(N(CCC#N)CCC#N)ccc1/C=C1N=C(/C=C\c2ccccc2)N(c2ccc(Cl)cc2)C\1=O`, for which the TGI in [1], in test [2], in [3], in test [4], in test [5] and in test [6] was above 100 µM in each case. Besides, the TGI in [7] was above 53.9 µM; in test [8], above 100 µM; in [9] it was above 100 µM; in test [10] it was above 100 µM.

Consider `CC(C)=CCC/C(C)=C/CC/C(C)=C/CC/C=C(\C)CC/C=C(\C)CCC(=O)Nc1ccn(C2OC(CO)C(O)C2(F)F)c(=O)n1` (stereo not given), for which the GI50 in test [1] is 0.326 µM; in test [2], 0.691 µM; in test [3], 2.64 µM; in [4], 0.122 µM; in [5] it was 1.09 µM; in test [6], 0.0183 µM. For the same molecule, the GI50 was 0.0501 µM in test [7], 0.252 µM in test [8], 0.48 µM in test [9] and 0.0743 µM in test [10]. The TGI in test [1] came out at 13.1 µM; in [2], 28 µM; in test [3], 21.9 µM; in test [4] it was 2.49 µM; in test [5], 7.15 µM; in test [6], 1.28 µM. The TGI stood at 14.7 µM in test [7], 8.22 µM in test [8], 21.4 µM in test [9] and 1.5 µM in test [10].

As for `COc1ccc(OC)c(Cn2cc3c(c2)-c2oncc2CC3)c1`, the GI50 in [1] is 5.97 µM; in [2] it was 2.92 µM; in test [3] it was 5.09 µM; in test [4] it was 3.39 µM; in test [5], 2.67 µM; in [6], 2.03 µM. In addition, the GI50 is 4.13 µM in test [7], 5.11 µM in [8], 2.87 µM in test [9] and 3.08 µM in [10]. Moreover, the TGI in test [1] is above 100 µM; in test [2] it was above 100 µM; in test [3], above 100 µM; in test [4], above 27.9 µM; in [5] it was 15.7 µM; in test [6], 7.62 µM. Further, the TGI is 38.8 µM in [7], above 82.4 µM in [8], above 100 µM in test [9] and above 41.2 µM in [10].

In the case of `CCN(CCO)CC(C)Nc1ccc([N+](=O)[O-])c2sc3ccccc3c(=O)c12` (stereo not given), the GI50 was 2.15 µM in test [1]; 1.76 µM in test [2]; 2.68 µM in [3]; 1.26 µM in [4]; 1.89 µM in [5]; 1.23 µM in test [6]. For the same molecule, the GI50 in [7] was 0.278 µM; in test [8] it was 1.47 µM; in [9], 1.04 µM; in test [10], 0.361 µM. The total growth inhibition concentration (TGI) was 18.4 µM in [1]; above 100 µM in test [2]; 10.3 µM in test [3]; 4 µM in [4]; 8 µM in [5]; 3.64 µM in [6]. Besides, the TGI was 1.65 µM in test [7], 2.85 µM in test [8], 3.19 µM in [9] and 2.89 µM in test [10].

`CC1=CC(=O)C(O)C2(C)C1CC(O)C13COC4(C)C(OC(=O)C41)C(O)C23` (stereo not given): the GI50 in test [1] was 8.32 µM; in test [2], 4.47 µM; in test [3], 7.32 µM; in [4], 17.3 µM; in test [5], 1.36 µM; in [6] it was 6.36 µM. For the same molecule, the GI50 in [7] is 10.7 µM; in [8], 9.57 µM; in test [9], 5.41 µM; in test [10] it was 0.0398 µM. Besides, the TGI is 32.7 µM in [1]; 23.4 µM in test [2]; above 100 µM in test [3]; above 100 µM in test [4]; 6.98 µM in [5]; 29.5 µM in test [6]. For the same molecule, the TGI in test [7] was determined as 42.7 µM; in test [8] it was 38.8 µM; in [9] it was 89.9 µM; in test [10], 7.34 µM.

For the molecule `CCOc1nc(N)nc(C)c1N=Nc1ccc(Cl)cc1`, the TGI in test [1] is 86.4 µM; in [2], above 100 µM; in test [3] it was above 100 µM; in test [4] it was 88.4 µM; in test [5], above 100 µM; in test [6], above 100 µM. The TGI in test [7], in test [8], in test [9] and in test [10] was above 100 µM throughout.

For the molecule `CCN(Cc1ccc(Cl)s1)c1ccc(CO)c(Cl)c1`, the GI50 in test [1] is 7.08 µM; in test [2], 4.2 µM; in test [3] it was 11.8 µM; in test [4], 1.41 µM; in test [5], 2.1 µM; in [6], 2.02 µM. Also, the GI50 in test [7] was 1.12 µM; in test [8], 0.0898 µM; in [9] it was 0.506 µM; in test [10], 21.5 µM. Also, the TGI was 22.3 µM in [1]; above 50.6 µM in test [2]; 25.4 µM in test [3]; 24.5 µM in test [4]; 14.6 µM in [5]; 13.7 µM in test [6]. The TGI in test [7] is 20 µM; in test [8] it was 0.298 µM; in [9], above 55.2 µM; in [10], above 75.1 µM.

In the case of `O=C1NC(=O)C(c2cccc(Cl)c2)=C1Nc1ccc(O)c(Cl)c1`, the GI50 is 9.42 µM in test [1]; 8.66 µM in test [2]; 13.7 µM in test [3]; 14 µM in [4]; 6.4 µM in test [5]; 7.91 µM in test [6]. Besides, the GI50 in test [7] was 7.93 µM; in test [8] it was above 25 µM; in [9], 8.73 µM; in test [10], 15 µM. In addition, the TGI was above 25 µM in [1]; above 25 µM in test [2]; above 25 µM in test [3]; above 25 µM in [4]; 24.8 µM in test [5]; 22.5 µM in test [6]. Moreover, the TGI in [7], in test [8], in test [9] and in test [10] was above 25 µM each time.

As for `CCN1C(=O)N(CC)C2C1NN=c1s/c(=C\c3ccccc3Br)c(=O)n12` (stereo not given), the GI50 was 0.0519 µM in [1]; 0.0303 µM in [2]; 7.19 µM in [3]; 0.0333 µM in [4]; 0.0389 µM in [5]; 0.308 µM in [6]. Further, the GI50 in [7] was 0.205 µM; in test [8], 9.29 µM; in test [9] it was 0.037 µM; in test [10], 0.0399 µM. For the same molecule, the TGI in [1] worked out at 31.2 µM; in test [2], 12.6 µM; in test [3], 25 µM; in test [4], 8.76 µM; in test [5], 17.4 µM; in test [6], 25.5 µM. Also, the TGI is 34.4 µM in test [7], 33.3 µM in test [8], above 54.2 µM in test [9] and 29.5 µM in test [10].

Turning to `CC(C)c1c2[nH]c3ccccc3c2c(C(C)C)c2[nH]c3ccccc3c12`, the TGI in test [1], in [2], in test [3], in test [4], in [5] and in test [6] was above 100 µM each time. Besides, the TGI in test [7], in [8], in test [9] and in test [10] was above 100 µM in each case.
